Publication PMC8269107, “Lipidation of Temporin-1CEb Derivatives as a Tool for Activity Improvement, Pros and Cons of the Approach” (International Journal of Molecular Sciences, 2021)
Values after ≈ are worked out from the molar mass of the structure shown. Where a SMILES comes first, the peptide text is derived from it. [ ]: non-standard residue; d: D form. The star is where a group is joined. Palmitoyl = CCCCCCCCCCCCCCCC(=O)*; Lauroyl = CCCCCCCCCCCC(=O)*; Pentanoyl = CCCCC(=O)*; AEEA = NCCOCCOCC(=O)O; Ahx = NCCCCCC(=O)O; βAla = NCCC(=O)O

What was measured:
[1] = test system: E. coli PCM 2057; assay: MIC, broth microdilution; type: cell-based, Escherichia coli; settings: E. coli PCM 2057, 24 h
Excerpt: (§1) Escherichia coli (PCM 2057 = ATCC 25922), Staphylococcus aureus (PCM 2054 = ATCC 25923), Staphylococcus epidermidis (PCM 2118 = ATCC 14990), Bacillus subtilis (PCM 2224 = ATCC 9799), Bacillus cereus (PCM 482 = ATCC 10702) and Pseudomonas aeruginosa (PCM 499 = ATCC 10145) were obtained from the Polish Collection of Microorganisms. Fungi strains Candida albicans (CCM 8186 = CNTC 49/64), Candida glabrata (CCM 8270 = ATCC 90030), Candida parapsilosis (CCM 8260 = ATCC 22019) and Candida krusei (CCM 8271 = ATCC 6258) were acquired from the Czech Collection of Microorganisms. S. aureus USA300 (wild type strain), the reference strain of Klebsiella pneumoniae (ATCC 13883) and clinical isolates of Pseudomonas aeruginosa (PA1, PA2) collected from nonrelated patients admitted to the Stefan Zeromski Specialist Municipal Hospital in Krakow (Poland) were kindly provided by the research group of the Department of Microbiology, Faculty of Biochemistry, Biophysics and Biotechnology, Jagiellonian University, Krakow, Poland.
(§2) Luria-Bertani broth (LB) and Sabouraud Dextrose broth (SB) (Biocorp, Poland) were used for cultivation of bacteria and fungi strains, respectively. The antimicrobial activity of the peptides were analyzed through determination of MIC (minimal inhibitory concentration) parameters according to Clinical and Laboratory Standards (CLSI) guidelines developed for aerobic bacteria and yeasts, respectively. Mueller-Hinton broth (MHB) was used as the working medium for all bacterial strains, while in the case of fungi, RPMI-1640 (with L-glutamine, without sodium bicarbonate) growth medium buffered with MOPS (morpholinepropanesulfonic acid) and supplemented with 2% glucose was used. Inoculum was prepared from freshly grown cultures of microorganisms at their exponential phase of growth. […] Plates were then incubated for 24 h at 37 °C in the case of bacteria and at 35 °C in the case of fungi. After that time, absorbance was read at 590 nm with a Perkin Elmer plate reader. Cultures without peptide were treated as positive control, while uninoculated media were defined as negative control. All measurements were run at least in triplicate.

[2] = test system: S. aureus PCM 2054; assay: MIC, broth microdilution; type: cell-based, Staphylococcus aureus; settings: S. aureus PCM 2054, standard Mueller-Hinton broth, 24 h
Excerpt: as §1, §2

[3] = test system: P. aeruginosa PCM 499; assay: MIC, broth microdilution; type: cell-based, Pseudomonas aeruginosa; settings: P. aeruginosa PCM 499, 24 h
Excerpt: as §1, §2

[4] = test system: S. aureus (PCM 2054) biofilm; assay: Biofilm eradication assay, pre-formed 24 h old biofilm (MTT); type: cell-based, Staphylococcus aureus; settings: S. aureus pre-formed 24 h old biofilm, 24 h treatment
Procedure: Biofilm eradication activity of the synthesized compounds was analyzed against 24 h old biofilms of S. aureus and C. albicans. In the case of bacteria, an overnight culture of S. aureus in Tryptic Soy Broth (TSB) supplemented with 2% glucose (TSB/+G) was used to prepare inoculum for the experiments. Briefly, 5 mL of 24 h culture was centrifuged at 5000× g, washed with sterile PBS and suspended in a fresh TSB/+G. The bacterial suspension was then diluted in a fresh growth medium to obtain the final concentration of colonies of about 1 × 10^7 cells per ml. Further, 200 μL of the inoculum was transferred to each well of 96-well sterile polystyrene flat-bottomed plate, and bacteria were then incubated for the next 24 h without shaking at 37 °C.
After that, each well of the plates containing bacterial or fungi biofilm was washed three times with PBS in order to remove all non-adherent cells. Then, peptide solutions of 200 µL ranging from 50 to 0,39 µg/mL prepared in TSB +/G in the case of experiments on S. aureus biofilm, and (RPMI-1640/+G) in the case of C. alibcans, were prepared and transferred into the microtiter plates. After the addition of the peptides, the experiments were continued for the next 24 h.
(§3) The reduction in biofilm viability was analyzed by means of MTT assay. Briefly, 20 μL of MTT solution (5 mg/mL in PBS) was added to prewashed wells with exchanged medium (180 μL of fresh medium) wells containing bacterial/yeast biofilms. Plates were then incubated in the dark for the next 3 h at 37 °C. After that time, the medium was replaced with 6 mM HCl in isopropanol and, when the reduced MTT was fully dissolved, the plates were read at 570 nm. Activity against fully developed 24 h old biofilm was described as biofilm eradication concentration (BEC50 expressed in µg/mL), which corresponded to the concentration of the compound able to reduce 50% of biofilm viability compared with the growth control.

[5] = test system: C. albicans (CCM 8186) biofilm; assay: Biofilm inhibition assay (MTT); type: cell-based, Candida albicans; settings: C. albicans biofilm development, 24 h post-inoculation
Procedure: In the case of bacteria, an overnight culture of S. aureus in Tryptic Soy Broth (TSB) supplemented with 2% glucose (TSB/+G) was used to prepare inoculum for the experiments. Briefly, 5 mL of 24 h culture was centrifuged at 5000× g, washed with sterile PBS and suspended in a fresh 2 × concentrated TSB/+G. In the case of yeasts, the overnight culture of C. albicans in Sabouraud dextrose broth (SB) was used for inoculum preparation. Similar to above, 5 mL of 24 h culture was centrifuged, washed with PBS and then suspended in sterile 2 × concentrated RPMI-1640 medium (with L-glutamine, without sodium bicarbonate) supplemented with 2% glucose (RPMI-1640/+G). In both cases, the cell concentration of the inoculum was about 1 × 10^7 cells per ml.
For the determination of the inhibitory concentration that reduced biofilm development by 50% (BIC50^, expressed in µg/mL), 100 µL inoculum in 2 × concentrated RPMI-1640/+G medium (in the case of C. albicans) or 2 x concentrated TSB/+G broth (in the case of S. aureus) was transferred to each well of 96-well plates containing 100 µL of serially diluted in water tested compounds. The final concentrations of the compounds were the same as those used in MIC determination studies. The 96-well plates were then incubated for 24 h at 37 °C and 35 °C in the case of bacteria and fungi, respectively. Viability of the microorganisms in the presence of the tested compounds was analyzed by means of MTT assay.
as §3

[6] = test system: S. epidermidis PCM 2118; assay: MIC, broth microdilution; type: cell-based, Staphylococcus epidermidis; settings: S. epidermidis PCM 2118, 24 h
Excerpt: as §1, §2

[7] = test system: C.glabrata CCM 8270; assay: MIC, broth microdilution; type: cell-based, Candida glabrata; settings: for MIC100: C.glabrata CCM 8270, 24 h
Excerpt: as §1, §2

Structure (SMILES)	MIC100 [1] [µg/mL]	MIC100 [2] [µg/mL]	MIC100 [3] [µg/mL]	BEC50 [4] [µg/mL]	BIC50 [5] [µg/mL]	MIC100 [6] [µg/mL]	MIC100 [7] [µg/mL]	fold improved activity in comparison to the parent DK5 ([7]; C. glabrata, MIC) [fold]
CC[C@H](C)[C@H](NC(=O)COCCOCCNC(=O)[C@H](Cc1c[nH]cn1)NC(=O)CCNC(=O)CCCCCN)C(=O)N[C@@H](CCCCN)C(=O)N[C@@H](CCCCN)C(=O)N[C@H](C(=O)N[C@@H](CC(C)C)C(=O)N[C@@H](CO)C(=O)N[C@@H](CCCCN)C(=O)N[C@H](C(=O)N[C@@H](CCCCN)C(=O)N[C@@H](CCCCN)C(=O)N[C@@H](CC(C)C)C(=O)N[C@@H](CC(C)C)C(N)=O)[C@@H](C)CC)[C@@H](C)CC [AHX-CAR-PEG-DK5] (H-[Ahx][βAla]H[AEEA]IKKILSKIKKLL-NH2)	>50	>50	>50	>50	>50	6.25 (≈ 3.31 µM)	>50	
CC[C@H](C)[C@H](NC(=O)CCCCCN)C(=O)N[C@@H](CCCCN)C(=O)N[C@@H](CCCCN)C(=O)N[C@H](C(=O)N[C@@H](CC(C)C)C(=O)N[C@@H](CO)C(=O)N[C@@H](CCCCN)C(=O)N[C@H](C(=O)N[C@@H](CCCCN)C(=O)N[C@@H](CCCCN)C(=O)N[C@@H](CC(C)C)C(=O)N[C@@H](CC(C)C)C(N)=O)[C@@H](C)CC)[C@@H](C)CC [AHX-DK5] (H-[Ahx]IKKILSKIKKLL-NH2)	12.5 (≈ 8.13 µM)	>50	25 (≈ 16.3 µM)	25	25	0.78 (≈ 0.507 µM)	12.5 (≈ 8.13 µM)	
CCCCC(=O)NCCC(=O)N[C@@H](Cc1c[nH]cn1)C(=O)NCCOCCOCC(=O)N[C@H](C(=O)N[C@@H](CCCCN)C(=O)N[C@@H](CCCCN)C(=O)N[C@H](C(=O)N[C@@H](CC(C)C)C(=O)N[C@@H](CO)C(=O)N[C@@H](CCCCN)C(=O)N[C@H](C(=O)N[C@@H](CCCCN)C(=O)N[C@@H](CCCCN)C(=O)N[C@@H](CC(C)C)C(=O)N[C@@H](CC(C)C)C(N)=O)[C@@H](C)CC)[C@@H](C)CC)[C@@H](C)CC [C5-CAR-PEG-DK5] ({Pentanoyl-βAla}-H[AEEA]IKKILSKIKKLL-NH2)	>50	>50	>50	>50	>50	6.25 (≈ 3.36 µM)	>50	
CCCCCCCCCCCC(=O)NCCC(=O)N[C@@H](Cc1c[nH]cn1)C(=O)NCCOCCOCC(=O)N[C@H](C(=O)N[C@@H](CCCCN)C(=O)N[C@@H](CCCCN)C(=O)N[C@H](C(=O)N[C@@H](CC(C)C)C(=O)N[C@@H](CO)C(=O)N[C@@H](CCCCN)C(=O)N[C@H](C(=O)N[C@@H](CCCCN)C(=O)N[C@@H](CCCCN)C(=O)N[C@@H](CC(C)C)C(=O)N[C@@H](CC(C)C)C(N)=O)[C@@H](C)CC)[C@@H](C)CC)[C@@H](C)CC [C12-CAR-PEG-DK5] ({Lauroyl-βAla}-H[AEEA]IKKILSKIKKLL-NH2)	3.13 (≈ 1.6 µM)	6.25 (≈ 3.19 µM)	12.5 (≈ 6.38 µM)			0.78 (≈ 0.398 µM)	12.5 (≈ 6.38 µM)	
CCCCCCCCCCCCCCCC(=O)NCCC(=O)N[C@@H](Cc1c[nH]cn1)C(=O)NCCOCCOCC(=O)N[C@H](C(=O)N[C@@H](CCCCN)C(=O)N[C@@H](CCCCN)C(=O)N[C@H](C(=O)N[C@@H](CC(C)C)C(=O)N[C@@H](CO)C(=O)N[C@@H](CCCCN)C(=O)N[C@H](C(=O)N[C@@H](CCCCN)C(=O)N[C@@H](CCCCN)C(=O)N[C@@H](CC(C)C)C(=O)N[C@@H](CC(C)C)C(N)=O)[C@@H](C)CC)[C@@H](C)CC)[C@@H](C)CC [C16-CAR-PEG-DK5] ({Palmitoyl-βAla}-H[AEEA]IKKILSKIKKLL-NH2)	>50	>50	>50	6.25	25	25 (≈ 12.4 µM)	>50	
CC[C@H](C)[C@H](NC(=O)COCCOCCNC(=O)[C@H](Cc1c[nH]cn1)NC(=O)CCN)C(=O)N[C@@H](CCCCN)C(=O)N[C@@H](CCCCN)C(=O)N[C@H](C(=O)N[C@@H](CC(C)C)C(=O)N[C@@H](CO)C(=O)N[C@@H](CCCCN)C(=O)N[C@H](C(=O)N[C@@H](CCCCN)C(=O)N[C@@H](CCCCN)C(=O)N[C@@H](CC(C)C)C(=O)N[C@@H](CC(C)C)C(N)=O)[C@@H](C)CC)[C@@H](C)CC [CAR-PEG-DK5] (H-[βAla]H[AEEA]IKKILSKIKKLL-NH2; N-terminus and C-terminus assumed)	>50	>50	50 (≈ 28.1 µM)	>50	50	3.9 (≈ 2.19 µM)	62.5 (≈ 35.2 µM)	
CCCCC(=O)N[C@H](C(=O)N[C@@H](CCCCN)C(=O)N[C@@H](CCCCN)C(=O)N[C@H](C(=O)N[C@@H](CC(C)C)C(=O)N[C@@H](CO)C(=O)N[C@@H](CCCCN)C(=O)N[C@H](C(=O)N[C@@H](CCCCN)C(=O)N[C@@H](CCCCN)C(=O)N[C@@H](CC(C)C)C(=O)N[C@@H](CC(C)C)C(N)=O)[C@@H](C)CC)[C@@H](C)CC)[C@@H](C)CC [Compound C5-DK5] (Pentanoyl-IKKILSKIKKLL-NH2)	3.13 (≈ 2.08 µM)	12.5 (≈ 8.29 µM)	25 (≈ 16.6 µM)	>50	10	0.78 (≈ 0.517 µM)	6.25 (≈ 4.14 µM)	
CCCCCCCCCCCC(=O)N[C@H](C(=O)N[C@@H](CCCCN)C(=O)N[C@@H](CCCCN)C(=O)N[C@H](C(=O)N[C@@H](CC(C)C)C(=O)N[C@@H](CO)C(=O)N[C@@H](CCCCN)C(=O)N[C@H](C(=O)N[C@@H](CCCCN)C(=O)N[C@@H](CCCCN)C(=O)N[C@@H](CC(C)C)C(=O)N[C@@H](CC(C)C)C(N)=O)[C@@H](C)CC)[C@@H](C)CC)[C@@H](C)CC [Compound C12-DK5] (Lauroyl-IKKILSKIKKLL-NH2)	12.5 (≈ 7.78 µM)	6.25 (≈ 3.89 µM)	12.5 (≈ 7.78 µM)	6.25	6.25	0.78 (≈ 0.486 µM)	3.13 (≈ 1.95 µM)	~20
